Data on 4 compounds can be found in article PMC11079024, “Identification of a family of species-selective complex I inhibitors as potential anthelmintics” (Nature Communications, 2024).

One series has as its system H. polygyrus. To be noted: cited from earlier work.
Series [1] concerns L1 wild-type C. elegans. As to the kind of experiment: whole plant or invertebrate. Particulars: Caenorhabditis elegans, 15 h.
The next series is described as follows: in vitro. To be noted: human.
The test system of the next series is HEK293 cells. To be noted: human, 2 days, 6.3 µM.
A further series concerns C. elegans. As to the kind of experiment: C. elegans chemical screens of RIKEN NPD libraries at 50 μM (hit identification in KCN survival and development/viability assays). To be noted: screened at 50 μM in triplicate; hit = modified z-score < −3; KCN = KCN survival assay, Dev. & Viability = development/viability assay. It counts as cell-based, Caenorhabditis elegans.
For a further series, the system named is adult H. polygyrus. Briefly: microbe, parasite or virus in culture. It counts as cell-based, Heligmosomoides polygyrus. As to the method: To investigate the impact of the eleven benzimidazole derivatives under anaerobic conditions, an anaerobic chamber with an integrated incubator (Coy Laboratory Products, USA) was used. The same procedure was followed as described for the aerobic drug screening in adult H. polygyrus, but the incubation took place within the anaerobic chamber (37 °C, 85% N2, 10% CO2, 5% H2). Benzimidazole derivatives were tested at a concentration of 10 µM. For scoring, the plates had to be removed from the anaerobic chamber. The whole experiment was performed two times i.e., two independent biological replicates.
The activities of eleven benzimidazole derivatives were tested against adult H. polygyrus viability in vitro under aerobic (+, white boxplots) and anaerobic (–, coloured boxplots) conditions (see Methods). After 24-hour chemical treatment, worm viability was manually scored by an examiner using a scale from 0 (dead) to 3 (motile); DMSO was used as a negative control in both aerobic and anaerobic conditions; levamisole was used as a positive control in anaerobic conditions. The percentage of affected worms (i.e., worms with a score equal to or lower than 1.5) in each biological replicate is shown; data are from two biological replicates. Within each boxplot, black horizontal lines denote group medians, boxes span from the 25th to the 75th percentile of each group’s distribution, and whiskers extend to the maximum and minimum values. […]

Series [2] has as its system L1 wild-type C. elegans. To be noted: for KCN survival assay value relative to DMSO control, Mean / KCN survival assay value relative to DMSO control: drug + KCN, 15-hour; for KCN survival assay value relative to DMSO control, Mean: mean of replicates; for KCN survival assay value relative to DMSO control: single replicates.
The subject of series [3] is L1 wild-type C. elegans. As to the kind of experiment: 15-hour motility assay with drug alone (no KCN). It counts as cell-based, Caenorhabditis elegans. Particulars: without KCN, 15-hour; for Value relative to DMSO control, drug alone (without KCN), Mean: mean of replicates; for Value relative to DMSO control, drug alone (without KCN): single replicates.
[4] abbreviates: read-out: C. elegans KCN Survival Assay LC50.

Where “and” joins values, the source holds several entries; their conditions need not be identical. Identical values can stand only once. Like-named read-outs stand apart in the source and are kept apart here.

Turning to `CO/N=C1\C[C@]2(C[C@@H]3C[C@@H](C/C=C(\C)C[C@@H](C)/C=C/C=C4\CO[C@@H]5[C@H](O)C(C)=C[C@@H](C(=O)O3)[C@]45O)O2)O[C@H](/C(C)=C/C(C)C)[C@H]1C` [moxidectin], the “reduction in H. polygyrus worm burden” value in the series with H. polygyrus (single dose 1 mg/kg, mice) is given as 99%.

`Fc1ccc(C(c2ccc(F)cc2)N2CCN(C/C=C/c3ccccc3)CC2)cc1` [Flunarizine]: the LC50 in the series with L1 wild-type C. elegans [1] (setting [4]) was determined as 22 µM. Moreover, in “in vitro” (HEK293 Cell Viability Assay LC50), the midpoint of cytotoxicity, the CC50 at 2 days, lay at 30.2 µM. In addition, in the series “in vitro” (HEK293 viability), the viability came out at 92.6%; the viability at 2 days, 0.4 µM worked out at 88.1%; the viability at 2 days, 0.8 µM was determined as 81.5%; the viability at 2 days, 6.3 µM turned out to be 100%. In the series “in vitro” (HEK293 viability), this compound yielded a viability at 2 days, 12.5 µM of 99.4% and a viability at 2 days, 50 µM of 17.1%. In the series with HEK293 cells, the HEK293 viability worked out at 1.000. Also, the “Hit Type” value in the series on C. elegans is recorded as “KCN”.

With `c1ccc([C@H]2CN3CCSC3=N2)cc1` [levamisole, reference compound], the “reduction in H. polygyrus worm burden” value in the series with H. polygyrus (mouse, in vivo, 1.25 mg/kg) is reported as 62%. The “# of Worms Affected” value in the series on adult H. polygyrus amounted to 12. Further, in the series on adult H. polygyrus (Heligmosomoides polygyrus, 24 h, read-out: Percent Worms Affected), the killing at 10 µM was 100%.

Take `O=C(Nc1ccc([N+](=O)[O-])cc1Cl)c1cc(Cl)ccc1O` [Niclosamide]: the values for the LC50 in the series with L1 wild-type C. elegans [1] (setting [4]) and in the series on L1 wild-type C. elegans [1] (read-out: C. elegans KCN survival assay LC50) were 0.095 µM and 0.0948 µM, respectively. In addition, the “Hit Type” value in the series with C. elegans is given as “KCN”. Further, the “C. elegans L1 relative motility, 3-hour post 200 µM KCN dilution” value in the series on L1 wild-type C. elegans [2] (dose 0.05 µM, Mean of replicates) is 1.030; in the series with L1 wild-type C. elegans [2] (dose 0.05 µM, individual replicate (Rep)), 1.077 and 0.962 and 1.145; in the series on L1 wild-type C. elegans [2] (dose 0.1 µM, Mean of replicates) it was 0.412; in the series on L1 wild-type C. elegans [2] (dose 0.1 µM, individual replicate (Rep)), 0.940 and 1.178 and 0.971; in the series on L1 wild-type C. elegans [2] (dose 0.2 µM, individual replicate (Rep)) it was 0.475 and 0.408 and 0.354; in the series on L1 wild-type C. elegans [2] (dose 0.8 µM, Mean of replicates) it was 0.011. For the same compound, the “C. elegans L1 relative motility, 3-hour post 200 µM KCN dilution” value is recorded as 0.006 in the series on L1 wild-type C. elegans [2] (dose 3.1 µM, Mean of replicates); 0.000 in the series on L1 wild-type C. elegans [2] (dose 3.1 µM, individual replicate (Rep)); 0.039 in the series on L1 wild-type C. elegans [2] (dose 6.3 µM, Mean of replicates); 0.0056 with L1 wild-type C. elegans [2] (dose 12.5 µM, Mean of replicates); 0.020 in the series with L1 wild-type C. elegans [2] (dose 25 µM, Mean of replicates); 0.000 in the series with L1 wild-type C. elegans [2] (dose […], Mean of replicates). Further, the “KCN survival assay value relative to DMSO control, Mean” value in the series on L1 wild-type C. elegans [2] (0.025 µM) is 1.061; in the series on L1 wild-type C. elegans [2] (0.05 µM), 1.030; in the series with L1 wild-type C. elegans [2] (0.1 µM), 0.412; with L1 wild-type C. elegans [2] (0.2 µM), 0.114; with L1 wild-type C. elegans [2] (0.4 µM), 0.0075; in the series with L1 wild-type C. elegans [2] (0.8 µM) it was 0.011. In addition, the “KCN survival assay value relative to DMSO control, Mean” value is 0.006 with L1 wild-type C. elegans [2] (3.1 µM), 0.039 with L1 wild-type C. elegans [2] (6.3 µM), 0.0056 in the series on L1 wild-type C. elegans [2] (12.5 µM) and 0.020 with L1 wild-type C. elegans [2] (25 µM). For the same compound, the “KCN survival assay value relative to DMSO control” value is 0.962 and 1.145 and 1.077 in the series on L1 wild-type C. elegans [2] (0.025 µM); 1.178 and 0.971 and 0.940 with L1 wild-type C. elegans [2] (0.05 µM); 0.408 and 0.354 and 0.475 in the series with L1 wild-type C. elegans [2] (0.1 µM). Also, the “Value relative to DMSO control, drug alone (without KCN), Mean” value in the series on L1 wild-type C. elegans [3] (0.025 µM) is 1.071; with L1 wild-type C. elegans [3] (0.05 µM), 1.075; in the series with L1 wild-type C. elegans [3] (0.1 µM), 0.944; in the series on L1 wild-type C. elegans [3] (0.2 µM) it was 0.857; with L1 wild-type C. elegans [3] (0.4 µM), 0.828; in the series on L1 wild-type C. elegans [3] (0.8 µM), 0.938. For the same compound, the “Value relative to DMSO control, drug alone (without KCN), Mean” value in the series on L1 wild-type C. elegans [3] (3.1 µM) was determined as 0.892; in the series with L1 wild-type C. elegans [3] (6.3 µM) it was 0.921; in the series with L1 wild-type C. elegans [3] (12.5 µM) it was 1.018; in the series on L1 wild-type C. elegans [3] (25 µM), 0.884. The “Value relative to DMSO control, drug alone (without KCN)” value was 0.995 and 1.216 and 1.349 and 0.779 and 1.019 with L1 wild-type C. elegans [3] (0.025 µM); 1.004 and 1.000 and 1.245 and 1.142 and 0.983 with L1 wild-type C. elegans [3] (0.05 µM); 0.881 and 0.705 and 1.000 and 1.091 and 1.040 in the series with L1 wild-type C. elegans [3] (0.1 µM); 0.621 and 0.780 and 0.965 and 0.960 and 0.957 with L1 wild-type C. elegans [3] (0.2 µM); 0.811 and 0.792 and 0.740 and 0.844 and 0.957 with L1 wild-type C. elegans [3] (0.4 µM); 0.966 and 0.718 and 0.993 and 1.008 and 1.003 with L1 wild-type C. elegans [3] (0.8 µM). For the same compound, the “Value relative to DMSO control, drug alone (without KCN)” value in the series on L1 wild-type C. elegans [3] (3.1 µM) is 0.775 and 0.855 and 0.898 and 1.068 and 0.863; with L1 wild-type C. elegans [3] (6.3 µM) it was 0.820 and 1.003 and 0.834 and 0.940 and 1.007; with L1 wild-type C. elegans [3] (12.5 µM) it was 0.937 and 0.884 and 0.971 and 1.234 and 1.065; with L1 wild-type C. elegans [3] (25 µM) it was 0.851 and 0.847 and 1.014 and 1.053 and 0.655.

In general, LC50 refers to the concentration lethal to half of the exposed cells or organisms. What is called CC50 is the concentration giving 50% cytotoxicity. A higher CC50 goes with lower toxicity to the cells. A word on the viability: it is a read-out of living cells in per cent, often relative to untreated cells.
